In paper PMC12147183, “Lacritin cleavage-potentiated targeting of iron - respiratory reciprocity promotes bacterial death” (The Journal of Biological Chemistry, 2025):
“Also recorded” adds a separate entry of the source. Peptide text beside a SMILES is read from it. * marks the point of attachment. FITC = O=C1OC2(c3ccc(O)cc3Oc3cc(O)ccc32)c2ccc(NC(=S)*)cc21; Ahx = NCCCCCC(=O)O

Legend:
P. aeruginosa PA14 [1] = assay: Imaging flow cytometry of peptide entry; assay type: cell-based, Pseudomonas aeruginosa; settings: 100 or 10 μM, PA14 10^6 cfu/ml, 1 h at 35 °C, trypsin EDTA to remove surface peptide, no ethanol, n = 3
Method: 0.5 ml of 10^6 cfu/ml PA14 cells in 1 mM Na2HPO4, 0.18 mM KH2PO4, 0.27 mM KCl, and 13.7 mM NaCl (pH 7.2) were incubated for 1 h at 35 °C with 10 or 100 μM FITC-N-104 (without, or as a positive control with 70% ethanol) or with the negative control FITC-C-95. Cells were subsequently washed in the same buffer, pelleted, treated with 100 μl of 0.25% trypsin EDTA (Gibco, 25200-056) for 5 min at 35 °C to remove surface-attached peptide, further washed and pelleted, resuspended in 100 μl of the same buffer for fixation with an equal volume of 8% formaldehyde (18,814, Polysciences Inc) and then imaged using an Amnis Imagestream X Mark II imaging flow cytometer. 500 to 1000 counts were analyzed per replicate. To ensure the exclusion of debris and out-of-focus cells, Gradient-RMS (average slope spanning three pixels in an image; 0–100) versus Area (number of pixels in an image reported in square microns; 1–200) of channel one was plotted for each experiment with more than 85% of the data falling within the cells-in-focus gate. The fluorescence intensity values of FITC-positive cells (Intensity-MC, channel 2) were analyzed using the IDEAS version 6.2 program (Amnis, Seattle WA) and plotted as histograms with a bin number of 100. FITC-positive cells were selected based on histograms generated from the positive control sample.

[2] = for solubility in common solvents: water, DMSO, methanol, isopropanol, acetonitrile
Excerpt: Guided by TMHMM v 2 and DeepTMHMM 1.0.24, we synthesized peptides corresponding to PotH’s predicted outer loops 2 ([…]) and outer loop 3 ([…]). Fifty-three amino acid PotH's OL1 was not synthesized with predicted poor solubility. We also synthesized peptides corresponding to FeoB's predicted outer loop 1 ([…]), outer loop 2 ([…]), outer loop 3 ([…]), and outer loop 5 (ATFAA). […] For these, all amino and carboxy termini were acetylated and amidated, respectively (Supporting Information Reagents Table). All synthesized peptides were aliquoted and stored lyophilized at −80 °C in a dry environment.

P. aeruginosa PA14 [3] = assay: SYTOX Orange PA14 membrane disruption assay; settings: 25 μM peptide, PA14 10^7 cfu/ml, 1 h at 35 °C, 5 μM SYTOX Orange; positive control 70% ethanol
[4] = test system: ^14C-spermidine uptake by PA14; assay type: cell-based, Pseudomonas aeruginosa; settings: 25 μM peptide, n = 6
Method: 100 μl aliquots (0.8 × 10^8 cfu) of PA14 cell cultures in 1 mM Na2HPO4, 0.18 mM KH2PO4, 0.27 mM KCl, 13.7 mM NaCl without or with 1, 10, 25, 50 or 100 μM N-104 (or N-80/C-25 or C-95) for 45 min at 35 °C were incubated with 1 μl of 10 mM [1,4-^14C]putrescine (0.1 mCi/ml; ARC-0245–250, American Radiolabeled Chemicals) or [1,4-^14C]spermidine (0.1 mCi/ml; ARC-3138–50, American Radiolabeled Chemicals) for 15 min at 35 °C. Cell pellets were washed four times with 100 μl of 10 mM Na2HPO4, 1.8 mM KH2PO4, 2.7 mM KCl, 137 mM NaCl (pH 7.2) and then transferred to 4 ml of scintillation fluid (1200.437, PerkinElmer OptiPhase HiSafe 3) for analysis in a Beckman Coulter LS6500. Also assessed was radioactivity from the last wash. Single-molecule transportation per cell was estimated using standard curves for each radiolabeled polyamine.

Fe^2+ uptake by PA14 = assay type: cell-based, Pseudomonas aeruginosa; settings: 25 μM peptide, n = 3
Method: Iron depletion was induced in PA14 cells (5 × 10^9 cfu in 10 ml 10 mM Na2HPO4, 1.8 mM KH2PO4, 2.7 mM KCl, 137 mM NaCl (pH 7.2) by treatment with the chelator 1 mM 2,2′-bipyridyl at room temperature for 1 h. After washing twice with 0.9% NaCl, cells were suspended in 1 ml of 1 mM Na2HPO4, 0.18 mM KH2PO4, 0.27 mM KCl, 13.7 mM NaCl for treatment without or with 1, 10, 25, 50 or 100 μM of N-104 (or negative control N-80/C-25 or C-95) for 45 min at 35 °C, incubated at the same temperature for 15 min with 100 μM FeSO4 and 13 mM ascorbic acid, washed twice with 1 mM Na2HPO4, 0.18 mM KH2PO4, 0.27 mM KCl, and 13.7 mM NaCl, and pelleted at 12,000g. The ferrozine assay ([54]) was subsequently employed. Briefly, cells in pellets were lysed with 20 μl of 50 mM NaOH, partially neutralized with 20 μl of 10 mM HCl, subjected to iron release with 20 μl of acidified 0.29 M KMnO4 for 30 min at 80 °C, cooled to room temperature, incubated with 7 μl of 30 mM ferrozine, 1.1 μl of 180 mM neocuproine, 15 μl of 5 M ammonium acetate and 15 μl of 1 M ascorbic acid for 30 min at room temperature and then centrifuged at 21,000g for 10 min. Cellular iron uptake could then be assessed from the supernatant OD565. Single-molecule transport per cell was estimated using a standard curve.

P. aeruginosa PA14 [5] = assay: PA14 viability (Alamar Blue, CFU) with exogenous polyamines; assay type: cell-based, Pseudomonas aeruginosa; settings: Alamar Blue and CFU; for protection of PA14 against 5 μM N-104 killing: 5 to 50 μM exogenous polyamine, n = 3
wild-type E. coli K-12 = assay: Alamar Blue viability assay of wild-type E. coli K-12; assay type: cell-based, Escherichia coli; settings: 100 μM, wild-type E. coli K-12 10^6 cfu/ml, 37 °C, hourly, n = 3
P. aeruginosa PA14 [6] = assay type: cell-based, Pseudomonas aeruginosa
Method: Janelia Fluor 549-N-104 and -C-95 (each 25 μg) in 20 μl of M9 minimal salts were incubated with ∼3.75 × 10^9 cfu of pelleted PA14 cells for 1 h at 35 °C, washed four times with filtered 10 mM Na2HPO4, 1.8 mM KH2PO4, 2.7 mM KCl, 137 mM NaCl (pH 7.2), and then treated with 5 μM SYTOX Green to assess membrane integrity. Stained cells (1 μl) were immobilized on coverslip supported 1.5% agarose pads for imaging on a custom-built inverted fluorescence microscope, using 1 W/cm^2 of 561-nm laser light (Genesis MX561 MTM, Coherent) to excite Janelia Fluor 549 Maleimide and 4 mW/cm^2 of 488-nm laser light (Coherent) to excite SYTOX Green. Emitted light collected using an oil immersion objective (PLSAPO, 60×, 1.4 NA) was passed through a filter set (zt440/488/561rpc, Chroma Technology) to block excitation light with separation of Janelia Fluor 549 Maleimide and SYTOX Green emission using a diochroic beam splitter (T5g0lpxr-uf3, Chroma Technology) as collected on separate sCMOS cameras (ORCA-Flash 4.0 V2, Hamamatsu Photonics). Brightfield images were collected to obtain the total number of cells in each field of view.

P. aeruginosa PA14 [7] = settings: 0-25 μM FITC-N-104 or 2-25 μM Janelia Fluor 549-tagged N-104, PA14 10^6 cfu/ml, 8 h
Method: After overnight incubation at 37 °C, plates were analyzed on a ChemiDoc XRS (Bio-Rad).

CC(C)C[C@H](NC(=O)[C@H](CCCCN)NC(=O)[C@H](CCC(N)=O)NC(=O)[C@H](C)NC(=O)CCCCCNC(=S)Nc1ccc2c(c1)C(=O)OC21c2ccc(O)cc2Oc2cc(O)ccc21)C(=O)N[C@@H](CC(C)C)C(=O)N[C@@H](CCCCN)C(=O)N[C@@H](CCCCN)C(=O)N[C@@H](Cc1ccccc1)C(=O)N[C@@H](CO)C(=O)N[C@@H](CC(C)C)C(=O)N[C@@H](CC(C)C)C(=O)N[C@@H](CCCCN)C(=O)N1CCC[C@H]1C(=O)N[C@@H](Cc1c[nH]c2ccccc12)C(=O)N[C@@H](C)C(=O)O [FITC-N-104] ({FITC-Ahx}-AQKLLKKFSLLKPWA-OH)
intracellular FITC fluorescence (P. aeruginosa PA14 [1]): substantial intracellular; also recorded: In contrast to FITC-C-95, substantial intracellular FITC-N-104 fluorescence was apparent at either 100 or 10 µM concentrations

CC[C@H](C)[C@H](NC(C)=O)C(=O)N[C@@H](CC(N)=O)C(=O)N[C@H](C(=O)NCC(=O)NCC(=O)N[C@@H](C)C(=O)N[C@@H](CC(C)C)C(=O)N[C@@H](CCC(N)=O)C(=O)N1CCC[C@H]1C(N)=O)[C@@H](C)CC [FeoB OL1 peptide] (Ac-INIGGALQP-NH2)
solvents in which solubility was identified [2]: formic or acetic acid | solubility in common solvents [2]: not water, DMSO, methanol, isopropanol or acetonitrile soluble

CC(=O)NCC(=O)N[C@@H](C)C(=O)N[C@@H](Cc1ccccc1)C(=O)N[C@@H](Cc1ccccc1)C(=O)NCC(=O)N[C@@H](CCC(N)=O)C(=O)NCC(=O)NCC(=O)N[C@@H](C)C(N)=O [FeoB OL3 peptide] (Ac-GAFFGQGGA-NH2)
solvents in which solubility was identified [2]: ammonia water and acetic acid | solubility in common solvents [2]: not water, DMSO, methanol, isopropanol or acetonitrile soluble

CSCC[C@H](NC(=O)CNC(=O)[C@H](CCCCN)NC(=O)CNC(=O)[C@H](C)NC(=O)[C@H](CCCCN)NC(=O)[C@H](C)NC(C)=O)C(=O)N[C@@H](Cc1c[nH]cn1)C(=O)NCC(=O)NCC(=O)N[C@H](C(=O)N1CCC[C@H]1C(=O)NCC(=O)NCC(N)=O)C(C)C [N-80/C-25, reference compound] (Ac-AKAGKGMHGGVPGG-NH2)
membrane disruption (SYTOX Orange uptake) (P. aeruginosa PA14 [3]): not membrane disruptive | effect on ^14C-spermidine uptake [4]: also inhibitory | effect on exogenous Fe^2+ uptake (Fe^2+ uptake by PA14): partially inhibitory

NCCCCN [Putrescine]
protection of PA14 against 5 μM N-104 killing (P. aeruginosa PA14 [5]): did not offer the same benefit | toxicity to PA14 (P. aeruginosa PA14 [5]; 100-2000 µM polyamine): nor was toxic at high concentrations

CC1(C)S[C@@H]2[C@H](NC(=O)[C@H](N)c3ccccc3)C(=O)N2[C@H]1C(=O)O [ampicillin]
bacterial metabolic activity (Alamar Blue) (wild-type E. coli K-12): inhibitory

NCCCCNCCCN [spermidine]
protection of PA14 against 5 μM N-104 killing (P. aeruginosa PA14 [5]): increasingly protected | concentration at which toxic to PA14 (P. aeruginosa PA14 [5]; 100-2000 µM polyamine): exceeding 100 μM

JaneliaFluor-CAQKLLKKFSLLKPWA [JanFl-N-104]
cellular staining pattern (P. aeruginosa PA14 [6]): peripheral internal ring | effect of tagging on N-104 activity in CFU assay (P. aeruginosa PA14 [7]): partially affected

JaneliaFluor-CEDASSDSTGADPAQEAGTSKPNEE [JanFl-C-95, Cys(N)-C-95 conjugated to Janelia Fluor 549 maleimide, reference compound]
cellular staining pattern (P. aeruginosa PA14 [6]): lacked staining
